Biological target: T1, rabbit muscle aldolase (Oryctolagus cuniculus, UniProt P00883)
T1 construct: gene ALDOA
T1 sequence (P00883 2-364): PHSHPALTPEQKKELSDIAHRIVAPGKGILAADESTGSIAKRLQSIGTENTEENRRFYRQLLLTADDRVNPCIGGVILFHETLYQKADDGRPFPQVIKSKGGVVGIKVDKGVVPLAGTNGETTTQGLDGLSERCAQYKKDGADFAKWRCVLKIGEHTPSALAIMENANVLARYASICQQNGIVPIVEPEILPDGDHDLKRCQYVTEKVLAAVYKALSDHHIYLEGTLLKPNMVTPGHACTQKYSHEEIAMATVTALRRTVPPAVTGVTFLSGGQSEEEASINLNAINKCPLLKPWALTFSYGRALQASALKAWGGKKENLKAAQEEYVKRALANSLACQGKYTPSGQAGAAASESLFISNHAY
Assay: coupled NADH assay (alpha-GDH/TPI), […] nm
Type: biochemical
Conditions: 2 mM F16P; pH 7.3; 25 °C; no TRAP peptide

O=P(O)(O)OC[C@H]1OC(O)(COP(=O)(O)O)[C@@H](O)[C@@H]1O (stereo partly shown) [fructose 1,6-bisphosphate]
coupled NADH assay (alpha-GDH/TPI), 340 nm: The assay was performed as described previously, however in the absence of TRAP-peptide

From PMC4545932, “Inhibition by stabilization: targeting the Plasmodium falciparum aldolase–TRAP complex” (Malaria Journal, 2015)
